Data taken from patent publication US4112217A, “Bis-hydrazones of daunomycin and adriamycin” (SRI International, priority 1977, dated 1978).
pIC50: −log10 of the molar value. Structures can show the parent of a compound that is named as a salt. Where two headings read alike, the source gives them in different places.

Columns and labels:
[1] = tested on: Cultured L1210 Leukemia Cells; assay: Inhibition of DNA synthesis in cultured lymphoid leukemia L1210 cells; assay type: cell-based; conditions: Mus musculus
Method: (§1) Biological testing data for compounds of this invention as the HCl salts, as well as for adriamycin and daunomycin, are presented in the table given below. The compounds were tested first in cultured lymphoid leukemia L1210 cells for inhibition of nucleic acid synthesis by previously reported procedures. The analogs were then tested against lymphocytic leukemia P388 implanted in mice, under the auspices of the NCI and according to its protocols which use the increased survival time of treated mice compared to controls as the measure of antitumor efficacy.
(§2) ^b Assay described in G. Tong, W. W. Lee, D. R. Black and D. W. Henry

P388 Leukemia in Mice = assay: Antitumor efficacy vs lymphocytic leukemia P388 implanted in mice (NCI protocol); assay type: in vivo, mice (murine)
Method: as §1
^c Ip P388 murine leukemia treated ip on QD1-9 and Q4D 5, 9, 13
schedules according to standard NCI protocols. Assay described in R. I.
Geran, N. H. Greenberg, M. M. MacDonald, A. M. Schumacker and B. J.
Abbott, Cancer Chemother. Rep., Part 3, 3 (No. 2), 9 (1972), Protocol
1,200. T/C = ratio of survival time of treated mice to that of untreated
controls times 100. Untreated controls survive about 9 days.

[2] = tested on: Cultured L1210 Leukemia Cells; assay: Inhibition of RNA synthesis in cultured lymphoid leukemia L1210 cells; assay type: cell-based; conditions: Mus musculus
Method: as §1, §2

[3] = L1210, read-out: Inhibition of Synthesis of DNA, ED50
[4] = Mus musculus, ip P388, treated ip, q4d 5,9,13, optimum dose 8 mg/kg, read-out: Antitumor Efficacy T/C
[5] = L1210, read-out: Inhibition of Synthesis of RNA, Ed50
[6] = Mus musculus, P388, ip, read-out: Antitumor Efficacy T/C
[7] = cultured L1210 leukemia cells, DNA synthesis, read-out: Inhibition of Synthesis of DNA, ED50
[8] = cultured L1210 leukemia cells, RNA synthesis, read-out: Inhibition of Synthesis of RNA, Ed50
[9] = Mus musculus, P388, ip, ip P388, treated ip, qd 1-9, optimum dose 6.25 mg/kg, read-out: Antitumor Efficacy T/C
[10] = Mus musculus, P388, ip, ip P388, treated ip, q4d 5,9,13, optimum dose 25 mg/kg, read-out: Antitumor Efficacy T/C

COc1cccc2c1C(=O)c1c(O)c3c(c(O)c1C2=O)C[C@@](O)(C(=O)CO)C[C@@H]3O[C@H]1C[C@H](N)[C@H](O)[C@H](C)O1 [Adriamycin]
pIC50 [1, 3]: 5.82
response vs control in vivo at 8 mg/kg (P388 Leukemia in Mice; [4]): 157%
response vs control in vivo at 1 mg/kg (P388 Leukemia in Mice; Mus musculus, ip P388, treated ip, qd 1-9, optimum dose 1.0 mg/kg, read-out: Antitumor Efficacy T/C): 195%
pIC50 [2, 5]: 6.17

COc1cccc2c1C(=O)c1c(O)c3c(c(O)c1C2=O)C[C@@](O)(C(C)=O)C[C@@H]3O[C@H]1C[C@H](N)[C@H](O)[C@H](C)O1 [Daunomycin]
pIC50 [1, 3]: 6.31
response vs control in vivo at 8 mg/kg (P388 Leukemia in Mice; [4]): 134%
response vs control in vivo at 0.5 mg/kg (P388 Leukemia in Mice; Mus musculus, ip P388, treated ip, qd 1-9, optimum dose 0.5 mg/kg, read-out: Antitumor Efficacy T/C): 166%
pIC50 [2, 5]: 6.41

COc1cccc2c1C(=O)c1c(O)c3c(c(O)c1C2=O)C[C@@](O)(C(C)=NNC(=O)CCC(=O)NN=C(C)[C@]1(O)Cc2c(O)c4c(c(O)c2[C@@H](O[C@H]2C[C@H](N)[C@H](O)[C@H](C)O2)C1)C(=O)c1c(OC)cccc1C4=O)C[C@@H]3O[C@H]1C[C@H](N)[C@H](O)[C@H](C)O1 [I, Bis(daunomycin) Succinylhydrazone Dihydrochloride]
pIC50 [1, 3]: 4.89
response vs control in vivo at 6.25 mg/kg (P388 Leukemia in Mice; [6]): 283%
response vs control in vivo at 12.5 mg/kg (P388 Leukemia in Mice; [6]): 307%
response vs control in vivo at 20 mg/kg (P388 Leukemia in Mice; [6]): 170%
treated mice survived until sacrifice at 30 days (P388 Leukemia in Mice; qd 1-9, 6.25 mg/kg, sacrifice at 30 days): Three out of six
treated mice survived until sacrifice at 45 days (P388 Leukemia in Mice; qd 1-9, 12.5 mg/kg, sacrifice at 45 days): Two out of six
pIC50 [2, 5]: 5.47

COc1cccc2c1C(=O)c1c(O)c3c(c(O)c1C2=O)C[C@@](O)(C(C)=NNC(=O)CCCC(=O)NN=C(C)[C@]1(O)Cc2c(O)c4c(c(O)c2[C@@H](O[C@H]2C[C@H](N)[C@H](O)[C@H](C)O2)C1)C(=O)c1c(OC)cccc1C4=O)C[C@@H]3O[C@H]1C[C@H](N)[C@H](O)[C@H](C)O1 [II, Bis(daunomycin) Glutarylhydrazone Dihydrochloride]
pIC50 [1, 7]: 5.35
response vs control in vivo at 1.56 mg/kg (P388 Leukemia in Mice; Mus musculus, P388, ip, ip P388, treated ip, qd 1-9, optimum dose 1.56 mg/kg, read-out: Antitumor Efficacy T/C): 188%
response vs control in vivo at 3.12 mg/kg (P388 Leukemia in Mice; Mus musculus, P388, ip, ip P388, treated ip, qd 1-9, optimum dose 3.12 mg/kg, read-out: Antitumor Efficacy T/C): 149%
pIC50 [2, 8]: 5.44

COc1cccc2c1C(=O)c1c(O)c3c(c(O)c1C2=O)C[C@@](O)(C(C)=NNC(=O)CCCCC(=O)NN=C(C)[C@]1(O)Cc2c(O)c4c(c(O)c2[C@@H](O[C@H]2C[C@H](N)[C@H](O)[C@H](C)O2)C1)C(=O)c1c(OC)cccc1C4=O)C[C@@H]3O[C@H]1C[C@H](N)[C@H](O)[C@H](C)O1 [III, Bis(daunomycin) Adipylhydrazone Dihydrochloride]
pIC50 [1, 7]: 5.05
response vs control in vivo at 37.5 mg/kg (P388 Leukemia in Mice; Mus musculus, P388, ip, ip P388, treated ip, q4d 5,9,13, optimum dose 37.5 mg/kg, read-out: Antitumor Efficacy T/C): 196%
response vs control in vivo at 6.25 mg/kg (P388 Leukemia in Mice; [9]): 281%
pIC50 [2, 8]: 5.44

COc1cccc2c1C(=O)c1c(O)c3c(c(O)c1C2=O)C[C@@](O)(C(C)=NNC(=O)CCCCCCC(=O)NN=C(C)[C@]1(O)Cc2c(O)c4c(c(O)c2[C@@H](O[C@H]2C[C@H](N)[C@H](O)[C@H](C)O2)C1)C(=O)c1c(OC)cccc1C4=O)C[C@@H]3O[C@H]1C[C@H](N)[C@H](O)[C@H](C)O1 [IV, Bis(daunomycin) Suberylhydrazone Dihydrochloride]
pIC50 [1, 7]: 5.31
response vs control in vivo at 25 mg/kg (P388 Leukemia in Mice; [10]): 178%
response vs control in vivo at 8 mg/kg (P388 Leukemia in Mice; Mus musculus, P388, ip, ip P388, treated ip, qd 1-9, optimum dose 8 mg/kg, read-out: Antitumor Efficacy T/C): 245%
pIC50 [2, 8]: 5.62

COc1cccc2c1C(=O)c1c(O)c3c(c(O)c1C2=O)C[C@@](O)(C(C)=NNC(=O)C(=O)NN=C(C)[C@]1(O)Cc2c(O)c4c(c(O)c2[C@@H](O[C@H]2C[C@H](N)[C@H](O)[C@H](C)O2)C1)C(=O)c1c(OC)cccc1C4=O)C[C@@H]3O[C@H]1C[C@H](N)[C@H](O)[C@H](C)O1 [IX, Bis-(Daunomycin) Oxalylhydrazone Dihydrochloride]
pIC50 [1, 7]: 5.37
response vs control in vivo at 25 mg/kg (P388 Leukemia in Mice; [10]): 160%
pIC50 [2, 8]: 5.64

COc1cccc2c1C(=O)c1c(O)c3c(c(O)c1C2=O)C[C@@](O)(C(C)=NNC(=O)CCCCCCCCC(=O)NN=C(C)[C@]1(O)Cc2c(O)c4c(c(O)c2[C@@H](O[C@H]2C[C@H](N)[C@H](O)[C@H](C)O2)C1)C(=O)c1c(OC)cccc1C4=O)C[C@@H]3O[C@H]1C[C@H](N)[C@H](O)[C@H](C)O1 [V, Bis(Daunomycin) Sebacylhydrazone Dihydrochloride]
pIC50 [1, 3]: 5.00
response vs control in vivo at 12.5 mg/kg (P388 Leukemia in Mice; [6]): 221%
response vs control in vivo at 50 mg/kg (P388 Leukemia in Mice; [6]): 163%
pIC50 [2, 5]: 6.00

COc1cccc2c1C(=O)c1c(O)c3c(c(O)c1C2=O)C[C@@](O)(C(C)=NNC(=O)CCC(=O)NN=C(C)[C@]1(O)Cc2c(O)c4c(c(O)c2[C@@H](O[C@H]2C[C@H](N(C)C)[C@H](O)[C@H](C)O2)C1)C(=O)c1c(OC)cccc1C4=O)C[C@@H]3O[C@H]1C[C@H](N(C)C)[C@H](O)[C@H](C)O1 [VI, Bis(N,N-dimethyldaunomycin) Succinylhydrazone Dihydrochloride]
pIC50 [1, 7]: 4.72
response vs control in vivo at 25 mg/kg (P388 Leukemia in Mice; [10]): 158%
response vs control in vivo at 4 mg/kg (P388 Leukemia in Mice; Mus musculus, P388, ip, ip P388, treated ip, qd 1-9, optimum dose 4 mg/kg, read-out: Antitumor Efficacy T/C): 178%
pIC50 [2, 8]: 5.52

COc1cccc2c1C(=O)c1c(O)c3c(c(O)c1C2=O)C[C@@](O)(C(CO)=NNC(=O)CCC(=O)NN=C(CO)[C@]1(O)Cc2c(O)c4c(c(O)c2[C@@H](O[C@H]2C[C@H](N)[C@H](O)[C@H](C)O2)C1)C(=O)c1c(OC)cccc1C4=O)C[C@@H]3O[C@H]1C[C@H](N)[C@H](O)[C@H](C)O1 [VII, Bis(adriamycin) Succinylhydrazone Dihydrochloride]
pIC50 [1, 7]: 4.88
response vs control in vivo at 18.8 mg/kg (P388 Leukemia in Mice; Mus musculus, P388, ip, ip P388, treated ip, q4d 5,9,13, optimum dose 18.8 mg/kg, read-out: Antitumor Efficacy T/C): 160%
response vs control in vivo at 6.25 mg/kg (P388 Leukemia in Mice; [9]): 309%
pIC50 [2, 8]: 5.51

COc1cccc2c1C(=O)c1c(O)c3c(c(O)c1C2=O)C[C@@](O)(C(C)=NNC(=O)CC(=O)NN=C(C)[C@]1(O)Cc2c(O)c4c(c(O)c2[C@@H](O[C@H]2C[C@H](N)[C@H](O)[C@H](C)O2)C1)C(=O)c1c(OC)cccc1C4=O)C[C@@H]3O[C@H]1C[C@H](N)[C@H](O)[C@H](C)O1 [VIII, Bis(daunomycin) Malonylhydrazone Dihydrochloride]
pIC50 [1, 7]: 4.85
response vs control in vivo at 6.25 mg/kg (P388 Leukemia in Mice; [9]): 169%
Antitumor Efficacy (in words) (P388 Leukemia in Mice; ip P388, treated ip, q4d 5,9,13, dose not given): inactive
pIC50 [2, 8]: 5.13

COc1cccc2c1C(=O)c1c(O)c3c(c(O)c1C2=O)C[C@@](O)(C(C)=NNC(=O)CCCCCC(=O)NN=C(C)[C@]1(O)Cc2c(O)c4c(c(O)c2[C@@H](O[C@H]2C[C@H](N)[C@H](O)[C@H](C)O2)C1)C(=O)c1c(OC)cccc1C4=O)C[C@@H]3O[C@H]1C[C@H](N)[C@H](O)[C@H](C)O1 [X, Bis-(daunomycin) Pimelylhydrazone Dihydrochloride]
pIC50 [1, 3]: 5.70
response vs control in vivo at 25 mg/kg (P388 Leukemia in Mice; [6]): 160%
pIC50 [2, 5]: 5.89
